Results on four molecules are retold here after patent US7439223B2, “Nucleophosmin/B23-binding peptide to inhibit tumor growth and regulate transcriptional activity of p53” (Chang Gung University, priority 2005, dated 2008).

For series [1], the system named is p53. Description: p53-dependent luciferase reporter (pGL13) in U1 cells. It is filed as cell-based. To be noted: 50-150 μM for 3 hours. From the text: pp53-TA-Luc contains a p53 response element, located upstream of the minimal TA promoter, the TATA box from the herpes simplex virus thymidine kinase promoter (PTA). Located downstream of PTA is the firefly luciferase reporter gene. Double stranded siRNA oligonucleotides against B23, siB23-297 (sense: 5′-[…]; and antisense: […]), and siB23-191 (sense 5′-[…] and antisense: […]) were synthesized. Two oligonucleotides were annealed and cloned into pSilencer™ siRNA expression vector by EcoR1 and Apa1.
Transfections were performed using Lipofectamine™ Reagent method. Before transfection, cells (2×10^5 per well) were seeded in 6-well plates overnight. […]
p53 protein is known to suppress tumor formation in vivo at least in part through its ability to induce cell death. […] The expression levels of p53 were measured by western blotting. […] Moreover, we analyzed whether the level of p53 changes upon siRNA mediated reduction of the intracellular amount of nucleophosmin/B23. […]
FIGS. 3A-3F illustrate Nucleophosmin/B23 regulates the increase in protein expression of p53. […] Total cell lysates were analyzed by western immunoblotting using antibodies specific for p53 and GAPDH. […] Total cell lysates were analyzed by Western immunoblotting using antibodies specific for nucleophosmin/B23, p53 and GAPDH. […] The cell extracts containing equal amounts of proteins were analyzed for CAT activity and luciferase activities. […]

Series [2] has as its system Ras-3T3 cells. Description: cytotoxic effect of peptides on Ras-3T3 cell viability. Format: cell-based. The following applies: for effect on cellular viability: 25 to 400 μM. How it is done: (§1) Regarding the cells and antibodies, MGH-U1 was established from a Grade III bladder transitional cell carcinoma. U1 and Ras-3T3 cells were grown in RPMI 1640 medium supplemented with 10% fetal bovine serum and 1% antibiotics in 5% CO2 humidified incubator at 37° C. The number of viable cells was determined by trypan blue exclusion and counted with a hemocytometer. Antinucleophosmin/B23 mAb, Anti-p53 polyclonal antibody (pAb) and anti-GAPDH were provided.
Rev-NLS (Rev), T-NLS and np-NLS peptides were synthesized. The primary sequences of the peptides and the dissociation constants of their interactions with nucleophosmin/B23 are shown in FIG. 4. Rev, T-NLS, and np-NLS peptides were applied to Ras-3T3 cells in parallel experiments at concentrations ranging from 25 to 400 μM.
In summary a review of the Figures is given. FIGS. 1A-1D, illustrate Nucleophosmin/B23-binding peptide inhibits tumor growth of Ras-3T3 cells and tumors in nude mice. […] After 24 hours of exposure, cells were counted and survival was expressed as the percentage of surviving cells relative to the untreated cells. Data represent means ±standard deviations; n=3. […] The colonies were stained and scored 12 days after seeding and the efficiencies were calculated as the percentage relative to the untreated cells. Values were expressed as the means ± standard deviations for three determinations. […] Mean tumor volume ±standard deviation for each treatment group was plotted (n=5). Statistical differences in tumor volumes were determined by Student's t-test. […] Tumor volumes of Rev- and PBS-treated (control) mice were plotted (n=5). A Student's t-test was used for statistical analysis. Results shown are representative of three independent experiments.

Series [3] deals with p53. Description: p53 expression level by western blotting in U1 cells. It is filed as cell-based. The following applies: 25-150 μM for 3 hours or 50 μM for 0.2-7 hours. As to the method: p53 protein is known to suppress tumor formation in vivo at least in part through its ability to induce cell death. The susceptibility of tumor cells to induction of cell death by cytotoxic drugs is modulated by p53 in many cases. It is then important for us to test whether the anti-tumor activity of nucleophosmin/B23-binding peptide is mediated through a p53 dependent regulation. […] The expression levels of p53 were measured by western blotting. […] In parallel, we transfected cells with a plasmid containing the luciferase reporter gene under the control of an artificial p53 target promoter (pGL13). […] Moreover, we analyzed whether the level of p53 changes upon siRNA mediated reduction of the intracellular amount of nucleophosmin/B23. […]
(§2) FIGS. 3A-3F illustrate Nucleophosmin/B23 regulates the increase in protein expression of p53. […] Total cell lysates were analyzed by western immunoblotting using antibodies specific for p53 and GAPDH. […] Total cell lysates were analyzed by Western immunoblotting using antibodies specific for nucleophosmin/B23, p53 and GAPDH. […] After 3 hours, cells were harvested and were analyzed by Western immunoblotting using antibodies specific for p53 and GAPDH. […] The cell extracts containing equal amounts of proteins were analyzed for CAT activity and luciferase activities. […]

Series [4] relates to tumors induced by Ras-3T3 cells. Description: nude mouse xenograft assay, intraperitoneal treatment. Format: in vivo, nude mice. The following applies: 10 mg/20 g body weight intraperitoneally once daily for 14 days, vs PBS. How it is done:
Exponentially growing Ras-3T3 cells were harvested, washed and resuspended in PBS at 3×10^6 cells/ml. Tumor xenografts were established by inoculating one hundred microliters (100 μl) of the cell suspension subcutaneously into the right flanks of the nude mice. To assay the antitumor activity of Rev, T-NLS, and np-NLS peptides, they were administered to tumors as a systemic intraperitoneal or as a local subcutaneous treatment. For intraperitoneal treatment, mice were randomized into 4 groups of 5 animals after grafting.
Animals were treated once daily for 14 days beginning 48 hr after the inoculation of Ras-3T3 cells. […] Three-dimensional measurements were taken with electric caliper and the tumor volumes were calculated using the formula, V=4πxyz/3, where 2x, 2y and 2z were the three perpendicular diameters of the tumor. […] Statistical differences in the tumor volumes were analyzed by the student's t-test. […]
Next, a nude mouse xenograft assay was used to evaluate the antitumor effect of peptides on the growth of tumors induced by Ras-3T3 cells. […] During the course of treatment, tumor growth was monitored daily by caliper measurement.
In summary a review of the Figures is given. […] After 24 hours of exposure, cells were counted and survival was expressed as the percentage of surviving cells relative to the untreated cells. […]

For series [5], the system named is nucleophosmin/B23. To be noted: cited from earlier work.
For series [6], the system named is nucleophosmin/B23 over-expressed cells. Description: cytotoxic effect on nucleophosmin/B23 over-expressed cells.
Series [7] relates to Ras-3T3 cells. Description: tumor growth in nude mice, DOX, Rev or DOX+Rev subcutaneously adjacent to the tumors. Format: in vivo. The following applies: 20 μg/20 g body weight subcutaneously adjacent to the tumors daily for 5 days. How it is done:
Doxorubicin (DOX), an anthracycline anti-tumor antibiotic, is active against a number of human cancers.
U1 (3×10^5) cells were treated with doxorubicin (DOX, 0.032-1.0 μg/ml). […] After 24 hr of exposure, cells were counted and survival was expressed as the percentage of surviving cells relative to the untreated cells. Data represent means ±standard deviations; n=3. In FIG. 2D, each mouse was inoculated with 3×10^5 Ras-3T3 cells (one site/mouse). […] Tumor volumes of DOX (20 μg/20 g body weight), Rev (1 mg/20 g body weight), DOX (10 μg/20 g body weight)+Rev (0.5 mg/20 g body weight) and PBS-treated (control) mice were plotted (n=5). The relative tumor volumes were expressed as percentages of the initial volumes at first day of treatments. *p<0.05, as compared with control mice. A Student's t-test was used for statistical analysis. Results shown are representative of three independent experiments.

In series [8] the test system is U1 bladder cancer cells. Briefly: U1 bladder cancer cell viability. It is filed as cell-based. The following applies: 24 hr, alone, read-out: concentration required to produce a 50% decrease in cell viability. How it is done:
as §1
U1 (3×10^5) cells were treated with doxorubicin (DOX, 0.032-1.0 μg/ml). […] After 24 hr of exposure, cells were counted and survival was expressed as the percentage of surviving cells relative to the untreated cells. […] The relative tumor volumes were expressed as percentages of the initial volumes at first day of treatments. *p<0.05, as compared with control mice. […]
as §2

Values after ≈ are worked out from the molar mass of the structure shown. Ends that are not written are not given here.

With “KRPAATKKAGQAKKKKYC (listed as Homo sapiens) [np-NLS]”, the “increase in p53-dependent transcription from the pGL13 promoter” value in series [1] was “No such increases”. For the same molecule, the “effect on cellular viability” value in series [2] was “little or virtually no effect”. Moreover, the activity against cells result in series [2] (at 1 mM (data not shown)) is recorded as “no activity”. Also, the “intracellular amount of p53 (protein expression)” value in series [3] is “No such increases”. Besides, the “inhibition of tumor growth” value in series [4] was “No inhibition of tumor growth”. In addition, the “binding affinity toward nucleophosmin/B23” value in series [5] (in words) is on record as “no binding affinity”.

ARRNRRRRWREYC-NH2 [Rev peptide]: the “dose needed to exert similar cytotoxic effect” value in series [6] is “higher doses”.

Take `COc1cccc2c1C(=O)c1c(O)c3c(c(O)c1C2=O)C[C@@](O)(C(=O)CO)C[C@@H]3O[C@H]1C[C@H](N)[C@H](O)[C@H](C)O1` [DOX, Doxorubicin]: the “tumor growth versus PBS control” value in series [7] is “grew more slowly”. Moreover, the IC50 in series [8] is 0.08 µg/mL (≈ 0.147 µM).

Turning to PKKKRKVEDPYC [T-NLS, PKKKRKVE DPYC], the “effect on cellular viability” value in series [2] is “little or virtually no effect”. In series [2] (read-out: concentration at which there was a 50% decrease in cell viability), the IC50 is ~1000 µM. Further, the “inhibition of tumor growth” value in series [4] was determined as 63.6%. For the same molecule, the Kd in series [5] (read-out: kd of interaction with nucleophosmin/B23) is 0.824 µM.
